According to patent US20100016328A1, “PTERIN ANALOGS” (BioMarin Pharmaceutical, Inc., priority 2007, published 2010):

Legend:
Assay type in all cases: in vitro ADME
[1] = Stability in human plasma; conditions: concentration of compound remaining over a 60 minute period; FIG. 3
Method: (§1) The stability of various compounds as disclosed herein were tested in human and rat and in simulated gastric fluid. Each compound was tested over an hour period for concentration of the compound remaining at each time point. The results are shown in FIGS. 3 (human plasma stability), 4 (rat plasma stability), and 5 (simulated gastric fluid stability) for the compounds of Example 2, 3, 4, and 20.

Stability in rat plasma = conditions: concentration of compound remaining over a 60 minute period; FIG. 4
Method: as §1

[2] = Stability in simulated gastric fluid; conditions: concentration of compound remaining over a 60 minute period; FIG. 5
Method: as §1

CCC(=O)O[C@@H]([C@H](C)OC(=O)CC)[C@H]1CNc2nc(N)[nH]c(=O)c2N1C(=O)CC [Example 3, Propionic acid 1-(2-amino-4-oxo-5-propionyl-3,4,5,6,7,8-hexahydro-pteridin-6-yl)-2-propionyloxy-propyl ester]
high level of stability: stability in human plasma [1] | stability in rat plasma (Stability in rat plasma) | stability in simulated gastric fluid [2]
